Key:
Assay type in all cases: cell-based, Drosophila
C1.8 cells [1] = test: Primary small molecule screen in ZO Fortified, CyQUANT Direct Proliferation Assay; conditions: C1.8 cells in ZO Fortified; for compound z-score (zC1.8): 4 days, z vs negative control, hit cutoffs z=±3; for hit call, primary screen: hit cutoffs ±3
Experimental: (§1) Five stock plates of randomized compounds (410 total) were prepared at 75 μM in water (1:133 dilution) using an automated liquid handler (Eppendorf EPMotion 5075). Strategically located negative control wells were incorporated into the stock plates by dosing wells with DMSO (1:133, carrier only control). Randomly placed positive control wells were also included by dosing wells with DMSO (1:133); for flexibility, positive controls were prepared in the working stock. Working stocks plates at 2 and 20 μM (2×) were then prepared in ZO Fortified by diluting the 5 stock plates 1:3.75 (high concentration working stock) and then serially diluting 1:10 (low concentration working stock). Positive control wells were prepared by replacing 10% of the media with 100% fly extract (FEX).
(§2) Cells were rinsed three times in PBS and seeded at a concentration of 50,000 cells/well (50 μL) in ZO Fortified (primary screen) or ZO Fortified supplemented with 2 μM spermidine (secondary screen) in 10 plates. Working stocks, 50 μL, were then immediately added on top of the cells (day 0). Plates were incubated at 25° C. for four days. On the fourth day, plates were imaged at 10× magnification on a confocal microscope using automated screen acquisition (Andor Spinning Disc Confocal Microscope, Metamorph Software). CyQUANT® Direct Proliferation Assay (Invitrogen) was then added (0.25× final conc.) and fluorescent intensity was measured with a plate reader (Biotek Synergy H2).
(§3) Five stock plates of randomized compounds in singlet (410 total) were prepared at 75 μM in water (1:133 dilution) using an automated liquid handler (Eppendorf epMotion® 5075). Ten strategically located negative controls were incorporated into each stock plate by dosing wells with DMSO (1:133, carrier only control) (Zhang, Optimal High-Throughput Screening: Practical Experimental Design and Data Analysis for Genome Scale RNAi Research, 2011). Four randomly placed positive control wells were also included on each plate by dosing wells with DMSO (1:133) for consistency, but for flexibility positive control treatments were prepared in the working stock. Working stocks at 2 and 20 μM (2×) were then prepared in ZO Fortified by diluting the 5 stock plates 1:3.75 (high concentration working stock) and then serially diluting 1:10 (low concentration working stock). Positive control wells were prepared by replacing 10% of the media with 100% fly extract (FEX) (see Zartman et al., Dev. Camb. Engl., 2013, 140, 667-674).
(§4) Cells were rinsed three times in phosphate buffered saline (PBS) and seeded at 50,000 cells/well (50 μL) in ZO Fortified. Working stocks, 50 μL, were then immediately added on top of the cells (day 0). Plates were incubated at 25° C. for four days, and then imaged at 10× magnification on a Nikon microscope using automated screen acquisition in MetaMorph® software. Plates were then treated with CyQUANT® (0.25× final concentration) for one hour at 25° C., and fluorescent intensity was measured with a plate reader (Biotek Synergy H2).
(§5) Strictly standardized mean difference (SSMD) scores for classifying assay quality were calculated with respect to negative controls on a plate-wise basis, with the average assay quality being excellent for both cell lines and screened concentrations. […] As a hit selection metric we used z-scores, which measure the number of standard deviations from the negative control that a small molecule treatment causes. Z-scores were calculated on a plate-wise basis, and hit cutoffs of z=±3 were selected. Visual inspection of images was used to remove false-positive hits, which generally occurred due to autofluorescence of a few of the compounds.

S2 cells [2] = test: as above; conditions: for compound z-score (zS2): 4 days, z vs negative control, hit cutoffs z=±3; for hit call, primary screen: hit cutoffs ±3
Experimental: as §1, §2, §3, §4, §5

C1.8 cells [3] = test: Secondary screen in ZB Media (ZO Fortified with spermidine), CyQUANT; conditions: C1.8 cells in ZB Media, hit cutoffs ±3
Experimental: as §1, §2
(§6) Representative positive and negative control wells can be found in FIG. 7. Compound z-scores were calculated similarly, hit cutoffs of ±3 were established visual inspection of confocal images was used to remove false-positive hits. This analysis yielded 8 C1.8 and 27 S2 positive hit compounds and 12 C1.8 and 27 S2 negative hit compounds (FIGS. 8-10).

S2 cells [4] = test: as above; conditions: hit cutoffs ±3
Experimental: as §1, §2, §6

ERK in S2 cells = test: Western blot of ERK and dpERK (MAPK activity); conditions: spermidine supplementation, p>0.45
Experimental: (§7) For western blots, C1.8 and S2 cells were rinsed three times in PBS and seeded in tissue culture flasks at a concentration of 1,000,000 cell/mL in the various media. Cells were cultured until positive control samples (complete media) reached ˜90% confluency, at which point all cell samples were lysed for 30 minutes on ice in a buffer containing 50 mM Tris, 150 mM NaCl, 1% Nonidet P 40 substitute (Sigma 74385), and 1% Sigma protease inhibitor cocktail (P8340). Nucleic acid and cell debris were cleared by centrifugation at 12,000 rpm for 20 minutes at 4° C. Because polyamines are known to play roles in initiation of transcription and translation, “housekeeping” genes routinely used as loading controls for western blots are likely inappropriate for this application. Thus samples were normalized by total loaded protein. Sample protein concentrations were determined three independent times per sample using Coomassie Plus (Bradford) Assay (Thermo Scientific 23238). ANOVA comparison of loading concentrations across all samples found no significant variation between samples (p>0.34). Proteins were resolved by SDS-PAGE in reducing conditions, electroblotted to PVDF membranes (Hybone 10600087), and probed with either 1:1000 anti-rabbit p44/p42 MAPK (Erk1/2) (Cell Signaling) or 1:1500 anti-mouse MAPK (dpERK1/2) (Sigma). Blots were developed using WesternBreeze chromogenic western blot immunodetection kit (Invitrogen) and quantification was done in Fiji (Schindelin et al., Nat. Methods, 2012, 9, 676-682).

ERK in C1.8 cells = test: Western blot of ERK and dpERK (MAPK activity)
Experimental: as §7

[5] = system: polyamine-depleted C1.8 cells; test: Polyamine-depleted spermidine dose-response, manual cell count; conditions: ZO Fortified
Experimental: C1.8 cells were rinsed three times in PBS and seeded in ZO Fortified at 1×10^6 cell/mL. After nine days of culture in ZO Fortified, cells were harvested and seeded in tissue culture flasks in ZO Fortified supplemented with 0, 0.1, 1, or 10 μM spermidine (in triplicate). After 6 days of culture, cells were manually counted.

C1.8 cells [6] = test: Long-term culture in chemically defined medium; conditions: passaged 1:2 retaining half of spent media
Experimental: (§8) Cells were rinsed 3× in PBS and then seeded at high confluency in ZO Fortified and ZB Media (ZO Fortified supplemented with 1 μM spermidine). Upon reaching confluency, cells were passaged 1:2 retaining half of the spent media.
(§9) C1.8, S2, and Kc167 (Kc) cells were expanded in optimized serum-containing media, C1.8, S2, and Kc167 media, respectively. C1.8 media contains M3 media (Sigma-Aldrich) supplemented with FBS (2%), insulin (5 μg/m), and fly extract (2.5%). S2 media is based on Schneider's media (Gibco® Life Technologies) supplemented with FBS (10%). Kc media containing M3 media supplemented with yeast extract (10 mg/mL), bactopeptone (25 mg/mL), and 5% FBS. All cell lines were obtained and cultured according to instructions from the Drosophila Genomics Resource Center (DGRC). Fly extract was prepared from adult yw flies as described by the DGRC. For culture in chemically defined media, cells were rinsed three times in PBS to remove residual serum and seeded at around 70% confluency in ZO Fortified or ZB Media (ZO Fortified with 1 μM spermidine added at time of passage). Upon reaching confluency, cells were passaged 1:2 retaining half the spent media, similar to routine maintenance in complete media, with cells passaged in ZB Media receiving fresh doses of 1 μM spermidine.

S2 cells [7] = test: Long-term culture in chemically defined medium; conditions: passaged 1:2 retaining half of spent media
Experimental: as §8, §9

SMILES | compound z-score (zC1.8) (C1.8 cells [1]) | compound z-score (zS2) (S2 cells [2]) | hit call, primary screen (C1.8 cells [1]) | hit call, primary screen (S2 cells [2]) | further results
CC(C)(C)c1cc(/C=C(\C#N)C(N)=S)cc(C(C)(C)C)c1O [AG-879] | −17.3 | −13.9 |  |  | 
CC(O)=C(C#N)C(=O)Nc1cc(Br)ccc1Br [LFM-A13, α-cyano-β-hydroxy-β-methyl-N-(2,5-dibromophenyl)propen-amide] |  |  |  |  | hit call, secondary screen (C1.8 cells [3]): positive hit; hit call, secondary screen (S2 cells [4]): positive hit
CO[C@@H]1[C@H](N(C)C(=O)c2ccccc2)C[C@H]2O[C@]1(C)n1c3ccccc3c3c4c(c5c6ccccc6n2c5c31)C(=O)NC4 [PKC-412] | −17.1 | −11.0 |  |  | 
NCCCCN [putrescine, butane-1,4-diamine] |  |  | positive hits | positive hits | 
Cc1cc(/C=C/c2ccc3cc(N(C)C)ccc3[n+]2C)c(C)n1-c1ccccc1 [pyrvinium pamoate] | −17.7 | −13.0 |  |  | 
NCCCCNCCCN [spermidine] | 10.0 | 8.7 | positive hit | positive hit | total ERK levels (ERK in S2 cells): not significantly influenced; ERK double phosphorylation (dpERK) (ERK in C1.8 cells; spermidine supplementation (ZB Media) vs ZO Fortified, p<0.012): increase ERK double phosphorylation; total ERK levels (ERK in C1.8 cells; spermidine supplementation, p>0.45): not significantly influenced; proliferation (cell number) ([5]; 1 μM spermidine compared to 0 or 0.1 μM, 6 days, p<5×10^−10): significant increase in proliferation; proliferation (cell number) ([5]; higher dose (10 μM) spermidine, after 6 days): failed to produce any statistically significant increases in cell number; passages reached in long-term culture (C1.8 cells [6]): ≥ 98 passages; passages reached in long-term culture (C1.8 cells [6]; listed as Spermidine): > 15 passages; passages reached in long-term culture (S2 cells [7]): 4 passages
NCCCNCCCCNCCCN [spermine] | 10.4 | 17.7 | positive hit | positive hit | 
CN[C@@H]1C[C@H]2O[C@@](C)([C@@H]1OC)n1c3ccccc3c3c4c(c5c6ccccc6n2c5c31)C(=O)NC4 [staurosporine] | −18.6 | −17.3 |  |  | 
CC1=C(O)C(=O)[C@@H]2O[C@@H]2C1=O [terreic acid] |  |  |  |  | hit call, secondary screen (C1.8 cells [3]): positive hit; hit call, secondary screen (S2 cells [4]): positive hit

Reference: patent US20160251614A1, “CELL CULTURE MEDIUM AND BIOPROCESS OPTIMIZATION” (UNIVERSITY OF NOTRE DAME DU LAC, priority 2013, published 2016)
